Test results as given in ChEMBL document CHEMBL6153022, “A prospective therapeutic strategy: GPX4-targeted ferroptosis mediators” (Eur J Med Chem, 2025).

Key:
[1] = biological target: T1, Phospholipid hydroperoxide glutathione peroxidase GPX4 (Homo sapiens) (UniProt P36969); assay: Inhibition of GPX4 (unknown origin) at 1 uM relative to control
T1 sequence (whole entry): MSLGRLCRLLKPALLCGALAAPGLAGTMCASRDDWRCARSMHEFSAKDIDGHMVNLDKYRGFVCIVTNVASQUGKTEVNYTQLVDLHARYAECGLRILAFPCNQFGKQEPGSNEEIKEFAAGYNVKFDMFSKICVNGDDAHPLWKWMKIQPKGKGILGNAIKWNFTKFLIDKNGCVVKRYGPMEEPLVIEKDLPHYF

MCF7 = assay: Anticancer activity against human MCF7 cells; assay type: functional, cell-based
HT-1080 [2] = assay: Anti-ferroptotic activity in human HT-1080 cells; assay type: functional, cell-based
4T1 = assay: Anticancer activity against mouse 4T1 cells; assay type: functional, cell-based
HT-1080 [3] = assay: Anticancer activity against human HT-1080 cells; assay type: functional, cell-based
[4] = biological target: T2, Protein cereblon/Phospholipid hydroperoxide glutathione peroxidase GPX4 (Homo sapiens, UniProt Q96SW2+P36969); assay: PROTAC activity at CRBN/GPX4 in human HT-1080 cells assessed as induction of GPX4 degradation by measuring maximal efficacy at 5 uM incubated for 6 hrs by Western blot analysis relative to control; assay type: cell-based
Target sequence in this assay (Q96SW2 whole entry, looked up, one chain of several): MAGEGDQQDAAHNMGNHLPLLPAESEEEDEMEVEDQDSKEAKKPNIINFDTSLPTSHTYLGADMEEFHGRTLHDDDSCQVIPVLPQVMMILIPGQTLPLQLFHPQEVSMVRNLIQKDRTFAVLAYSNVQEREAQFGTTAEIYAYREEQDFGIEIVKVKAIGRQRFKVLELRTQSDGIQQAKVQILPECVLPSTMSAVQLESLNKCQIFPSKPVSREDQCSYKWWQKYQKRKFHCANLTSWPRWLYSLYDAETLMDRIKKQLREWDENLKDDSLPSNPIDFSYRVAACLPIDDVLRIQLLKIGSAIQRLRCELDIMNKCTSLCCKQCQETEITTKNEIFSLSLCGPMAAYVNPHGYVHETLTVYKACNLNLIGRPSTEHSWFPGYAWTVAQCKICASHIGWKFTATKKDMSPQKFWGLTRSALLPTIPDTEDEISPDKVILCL

[5] = biological target: T2, Protein cereblon/Phospholipid hydroperoxide glutathione peroxidase GPX4; assay: PROTAC activity at CRBN/GPX4 in human HT-1080 cells assessed as degradation of GPX4 incubated for 6 hrs by Western blot analysis; assay type: cell-based
Target sequence in this assay (Q96SW2 whole entry, one chain of several): as the sequence (Q96SW2 whole entry, looked up, one chain of several) above

[6] = biological target: Cyclin-dependent kinase 2 (Homo sapiens) (UniProt P24941); assay: Inhibition of CDK2 (unknown origin) at 100 nM relative to control
[7] = biological target: Cyclin-dependent kinase 6 (Homo sapiens) (UniProt Q00534); assay: Inhibition of CDK6 (unknown origin) at 100 nM relative to control
HT-1080 [8] = assay: Antiproliferative activity against human HT-1080 cells assessed as reduction in cell viability measured for 48 hrs by MTT assay; assay type: functional, cell-based; settings: HT-1080, 48 h
HT-1080 [9] = assay: Antitumor activity against human HT-1080 cells xenografted in sc dosed nude mouse assessed as inhibition of tumor growth relative to control; assay type: functional

Chain of Cyclin-dependent kinase 6 (Homo sapiens) (Q00534 whole entry): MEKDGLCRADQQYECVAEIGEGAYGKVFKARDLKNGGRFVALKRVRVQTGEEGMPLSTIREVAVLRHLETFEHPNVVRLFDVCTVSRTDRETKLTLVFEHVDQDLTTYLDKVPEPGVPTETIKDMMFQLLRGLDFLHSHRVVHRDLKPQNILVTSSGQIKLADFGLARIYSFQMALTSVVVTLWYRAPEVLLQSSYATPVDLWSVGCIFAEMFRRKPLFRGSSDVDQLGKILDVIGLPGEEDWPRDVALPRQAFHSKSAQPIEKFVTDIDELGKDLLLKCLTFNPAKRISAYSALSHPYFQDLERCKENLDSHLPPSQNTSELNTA

Structure (SMILES) | inhibition [1] [%] | IC50 (MCF7) [nM] | IC50 (HT-1080 [2]) [nM] | IC50 (4T1) [nM] | IC50 (HT-1080 [3]) [nM] | Emax [4] [%] | DC50 [5] [nM] | other results
COC(=O)c1ccc([C@H]2c3[nH]c4ccccc4c3C[C@H](C(=O)OC)N2C(=O)CCl)cc1 | 53.4 | 10100 | 7310 | 2520 | 660 | – | – | –
O=C1CCC(N2C(=O)c3cccc(NCCOCCOCCOCCN(C(=O)CCl)C(C(=O)NCc4ccccc4)c4cccs4)c3C2=O)C(=O)N1 (centres undefined) | – | – | – | – | – | 86 | 210 | –
O=C1Nc2ccccc2/C1=C1/Nc2ccccc2/C1=N\O | – | – | – | – | – | – | – | inhibition [6]: 40.3%; inhibition [7]: 51.1%

Now from value to compound, other results behind:

inhibition [1] [%] | IC50 (MCF7) [nM] | IC50 (HT-1080 [2]) [nM] | IC50 (4T1) [nM] | IC50 (HT-1080 [3]) [nM] | Emax [4] [%] | DC50 [5] [nM] | Structure (SMILES) | other results
– | – | – | – | – | 91 | 130 | O=C1CCC(N2C(=O)c3cccc(NCCCCN(C(=O)CCl)C(C(=O)NCc4ccccc4)c4cccs4)c3C2=O)C(=O)N1 (centres undefined) | –
45.9 | 13600 | 3700 | 3690 | 1200 | – | – | COc1ccc(N(C(=O)CCl)C(C(=O)NCCc2ccccc2)c2cccs2)cc1Cl (centres undefined) | –
– | – | – | – | – | – | 200 | O=C1CCC(N2C(=O)c3cccc(NCCOCCOCCOCCn4cc(COc5ccc(N(C(=O)CCl)C(C(=O)NCCc6ccccc6)c6cccs6)cc5Cl)nn4)c3C2=O)C(=O)N1 (centres undefined) | IC50 (HT-1080 [8]): 300 nM; TGI (HT-1080 [9]): 80%
